Measurements from EP4624471A1, “PKMYT1 INHIBITOR, PREPARATION METHOD THEREFOR, AND PHARMACEUTICAL COMPOSITION AND USE THEREOF” (Shanghai Qilu Pharmaceutical Research and Development …, priority 2022, dated 2024).

These molecules were tested against T1, PKMYT1 enzyme (Homo sapiens, UniProt Q99640) (assay: PKMYT1 enzyme inhibition activity, ADP-GLO method). Details: PKMYT1 enzyme 10 nM, ATP 5 µM, 37°C 90 minutes; read-out: ADP-GLO IC50.
T1 construct: purchased Thermo Scientific A33387
T1 sequence (Q99640 1-499): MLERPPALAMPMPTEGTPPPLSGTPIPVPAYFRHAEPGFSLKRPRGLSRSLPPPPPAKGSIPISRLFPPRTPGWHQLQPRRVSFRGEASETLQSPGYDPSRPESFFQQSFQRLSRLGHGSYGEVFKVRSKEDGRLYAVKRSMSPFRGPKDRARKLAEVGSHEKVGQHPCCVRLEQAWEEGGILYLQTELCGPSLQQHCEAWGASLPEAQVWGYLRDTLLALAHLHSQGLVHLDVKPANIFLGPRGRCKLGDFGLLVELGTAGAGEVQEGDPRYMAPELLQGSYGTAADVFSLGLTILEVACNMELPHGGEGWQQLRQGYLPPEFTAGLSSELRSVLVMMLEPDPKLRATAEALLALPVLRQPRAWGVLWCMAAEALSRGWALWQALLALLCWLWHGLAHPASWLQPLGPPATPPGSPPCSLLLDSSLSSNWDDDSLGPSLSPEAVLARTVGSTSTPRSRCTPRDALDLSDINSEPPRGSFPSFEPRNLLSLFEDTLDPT
Format: biochemical
Protocol: Enzyme inhibition activity of compounds of the present disclosure
The enzyme activity of some of the example compounds was verified using the ADP-GLO method.
PKMYT1 enzyme protein was purchased from Thermo Scientific (Cat. No.: A33387), and the ADP-GLO kit was purchased from Promega (Cat. No.: V9103).
PKMYT1 enzyme activity reaction buffer: 70 mM HEPES, 3 mM MgCl2, 3 mM MnCl2, 50 µg mL-1PEG20000, 3 µM sodium orthovanadate, 1.2 mM DTT.
The reaction plate with the added compounds was centrifuged at 2500 rpm for 1 minute.
The prepared enzyme solution was added to the reaction plate, 5 µL per well, and the final concentration of enzyme was 10 nM. The reaction plate was centrifuged at 1000 rpm for 1 minute. The reaction plate was placed in an incubator at 37°C for 15 minutes.
The prepared ATP substrate solution was added to the reaction plate, 5 µL per well, and the final concentration of ATP was 5 µM. The reaction plate was centrifuged at 1000 rpm for 1 minute. After sealing the plate with aluminum foil, the plate was placed in an incubator and the reaction was carried out at 37°C for 90 minutes.
10 µL of ADP-glo™ reagent was added to stop the kinase reaction and consume unconsumed ATP, leaving only ADP and a very low ATP background. The reaction plate was centrifuged at 1000 rpm for 1 minute. After sealing the plate with aluminum foil, the reaction was carried out at room temperature for 60 minutes.
ADP was converted to ATP by adding 20 µL of kinase detection reagent, and luciferase and luciferin were introduced to detect ATP. The reaction plate was centrifuged at 1000 rpm for 1 minute. After sealing the plate with aluminum foil, the reaction was carried out at room temperature for 60 minutes.
The ADP-GLO luminescence signal values were read by the microplate reader PHERAstar, and the readings were analyzed.

SMILES | IC50
Cc1ccc(O)c(C)c1-n1c(N)c(C(N)=O)c2cnc(C3CC3)nc21 [Example 41, 6-Amino-2-cyclopropyl-7-(3-hydroxy-2,6-dimethylphenyl)-7H-pyrrolo[2,3-d]pyrimidine-5-carboxamide] | 11.2 nM
Cc1cc(F)c(O)c(C)c1-n1c(N)c(C(N)=O)c2cc(C(F)(F)F)cnc21 (atropisomer, axis not shown) [Example 154.2] | 5.1 nM
Cc1ccc(O)c(C)c1-n1c(N)c(C(N)=O)c2c3cnccc3c(C)cc21 (racemic) [Example 189, 8-amino-7-(3-hydroxy-2,6-dimethylphenyl)-S-methyl-7H-pyrrolo[2,3-h]isoquinoline-9-carboxamide] | 5 nM
Cc1cc2c(C(N)=O)c(N)n(-c3c(C)cc(Cl)c(O)c3C)c2nc1C [Example 43, 2-Amino-1-(4-chloro-3-hydroxy-2,6-dimethylphenyl)-5,6-dimethyl-1H-pyrrolo[2,3-b]pyridine-3-carboxamide] | 26.4 nM
Cc1cc(F)c(O)c(C)c1-n1c(N)c(C(N)=O)c2cc(C3=CCOCC3)c(C)nc21 (atropisomer, axis not shown) [Example 175] | 4.8 nM
Cc1cc2c(C(N)=O)c(N)n(-c3c(C)c(O)cc(Cl)c3C)c2nc1C [Example 48, 2-Amino-1-(3-chloro-5-hydroxy-2,6-dimethylphenyl)-5,6-dimethyl-1H-pyrrolo[2,3-b]nicotinamide] | 36.8 nM
CCNc1ncc2c(C(N)=O)c(N)n(-c3c(C)ccc(O)c3C)c2n1 [Example 75] | 5.5 nM
[2H]C([2H])([2H])c1c(O)c(F)cc(C)c1-n1c(N)c(C(N)=O)c2cc(C(F)(F)F)c(C)nc21 (racemic) [Example 195] | 4.6 nM
Cc1cc(F)c(O)c(C)c1-n1c(N)c(C(N)=O)c2cc3ccccc3nc21 [Example 180] | 30.5 nM
Cc1cc(F)c(O)c(C)c1-n1c(N)c(C(N)=O)c2cc(N(C)C)c(C)nc21 (racemic) [Example 169] | 26.2 nM
CCc1ccc(O)c(C)c1-n1c(N)c(C(N)=O)c2cnc(C)nc21 [Example 68] | 299 nM
Cc1ccc(O)c(C)c1-n1c(N)c(C(N)=O)c2cnc(NCC(F)F)nc21 [Example 77] | 20.2 nM
Cc1ccc(O)c(C)c1-n1c(N)c(C(N)=O)c2cnc(N)nc21 [Example 40, 2,6-Diamino-7-(3-hydroxy-2,6-dimethylphenyl)-7H-pyrrolo[2,3-d]pyrimidine-5-carboxamide] | 23.6 nM
Cc1cc(F)c(O)c(C)c1-n1c(N)c(C(N)=O)c2cc(C(C)C)cnc21 (racemic) [Example 170] | 18.1 nM
Cc1cc2c(C(N)=O)c(N)n(-c3c(C)cc(F)c(O)c3C)c2nc1C [Example 23, 2-Amino-1-(4-fluoro-3-hydroxy-2,6-dimethylphenyl)-5,6-dimethyl-1H-pyrrolo[2,3-b]pyridine-3-carboxamide] | 8.58 nM
CCc1nc(C)nc2c1c(C(N)=O)c(N)n2-c1c(C)c(O)cc(F)c1C [Example 61] | 38.6 nM
COc1cnc2c(c1)c(C(N)=O)c(N)n2-c1c(C)cc(F)c(O)c1C [Example 149] | 12.6 nM
Cc1cc2c(C(N)=O)c(N)n(-c3c(C)c(O)cc(F)c3C)c2nc1C(C)C [Example 139] | 143 nM
Cc1cc(F)c(O)c(C)c1-n1c(N)c(C(N)=O)c2cc(C3CCOCC3)c(C)nc21 (atropisomer, axis not shown) [Example 163.1] | 5.7 nM
Cc1c(O)cc(F)c(C)c1-n1c(N)c(C(N)=O)c2cc(F)cnc21 [Example 82] | 5.43 nM
[2H]C([2H])([2H])c1nc2c(cc1C(F)(F)F)c(C(N)=O)c(N)n2-c1c(C)cc(F)c(O)c1C (racemic) [Example 194] | 6.36 nM
Cc1nc(C)c2c(C(N)=O)c(N)n(-c3c(C)ccc(O)c3C)c2n1 [Example 19, 6-Amino-7-(3-hydroxy-2,6-dimethylphenyl)-2,4-dimethyl-7H-pyrrolo[2,3-d]pyrimidine-5-carboxamide] | 4.5 nM
Cc1ccc(O)c(C)c1-n1c(N)c(C(N)=O)c2cnc(N3CCC(F)(F)CC3)nc21 [Example 37, 6-Amino-2-(4,4-difluoropiperidin-1-yl)-7-(3-hydroxy-2,6-dimethylphenyl)-7H-pyrrolo[2,3-d]pyrimidine-5-carboxamide] | 3.09 nM
Cc1cc(F)c(O)c(C)c1-n1c(N)c(C(N)=O)c2cc(C(C)(C)O)cnc21 [Example 145] | 24.3 nM
CCc1cc2c(C(N)=O)c(N)n(-c3c(C)cc(F)c(O)c3C)c2nc1C (single isomer, unassigned) [Example 143.1] | 20 nM
COc1nc2c(cc1C)c(C(N)=O)c(N)n2-c1c(C)cc(F)c(O)c1C [Example 167] | 22 nM
Cc1cc(F)c(O)c(C)c1-n1c(N)c(C(N)=O)c2c3c(cnc21)CCC3 (racemic) [Example 186] | 7.41 nM

SMILES | IC50
Cc1cc(F)c(O)c(C)c1-n1c(N)c(C(N)=O)c2cc(C(F)(F)F)c(C)nc21 [Example 59, 2-Amino-1-(4-fluoro-3-hydroxy-2,6-dimethylphenyl)-6-methyl-5-(trifluoromethyl)-1H-pyrrolo[2,3-b]pyridine-3-carboxamide] | 8.67 nM
Cc1ccc(O)c(C)c1-n1c(N)c(C(N)=O)c2cnc(N3CCCCC3)nc21 [Example 13, 6-Amino-7-(3-hydroxy-2,6-dimethylphenyl)-2-(piperidin-1-yl)-7H-pyrrolo[2,3-d]pyrimidine-5-carboxamide] | 12.2 nM
COC(C)(C)c1cc2c(C(N)=O)c(N)n(-c3c(C)cc(F)c(O)c3C)c2nc1C [Example 171] | 26.8 nM
C/C=C/c1ncc2c(C(N)=O)c(N)n(-c3c(C)ccc(O)c3C)c2n1 [Example 79] | 4.74 nM
Cc1cc(F)c(O)c(C)c1-n1c(N)c(C(N)=O)c2cc(C3CCOCC3)c(C)nc21 (atropisomer, axis not shown) [Example 163] | 23.4 nM
C=C(C)c1cc2c(C(N)=O)c(N)n(-c3c(C)cc(F)c(O)c3C)c2nc1C [Example 156] | 26.4 nM
Cc1cc(F)c(O)c(C)c1-n1c(N)c(C(N)=O)c2cc3c(nc21)CCC3 [Example 183] | 33.8 nM
Cc1c(O)cc(F)c(C)c1-n1c(N)c(C(N)=O)c2cc(C#N)cnc21 [Example 98] | 8.11 nM
Cc1ccc(O)c(C)c1-n1c(N)c(C(N)=O)c2cnc(N3CCOCC3)nc21 [Example 34, 6-Amino-7-(3-hydroxy-2,6-dimethylphenyl)-2-morpholino-7H-pyrrolo[2,3-d]pyrimidine-5-carboxamide] | 25.7 nM
Cc1cnc2c(c1)c(C(N)=O)c(N)n2-c1c(C)c(O)cc(F)c1C [Example 89] | 3 nM
Cc1ccc(O)c(C)c1-n1c(N)c(C(N)=O)c2cnc(N(C)C)nc21 [Example 36, 6-Amino-2-(dimethylamino)-7-(3-hydroxy-2,6-dimethylphenyl)-7H-pyrrolo[2,3-d]pyrimidine-5-carboxamide] | 17.4 nM
Cc1cc(F)c(O)c(C)c1-n1c(N)c(C(N)=O)c2cc3c(nc21)CCCC3 (racemic) [Example 177] | 34.7 nM
CCc1nc(C)nc2c1c(C(N)=O)c(N)n2-c1c(C)ccc(O)c1C (atropisomer, axis not shown) [Example 66.1] | 16.5 nM
Cc1ccc(O)c(C)c1-n1c(N)c(C(N)=O)c2cnc(C)c(F)c21 [Example 29, 2-Amino-7-fluoro-1-(3-hydroxy-2,6-dimethylphenyl)-6-methyl-1H-pyrrolo[3,2-c]nicotinamide] | 12.4 nM
Cc1cc(F)c(O)c(C)c1-n1c(N)c(C(N)=O)c2cc(CC(C)C)cnc21 [Example 147] | 13.6 nM
Cc1ncc2c(C(N)=O)c(N)n(-c3c(C)c(O)cc(F)c3C)c2c1F (atropisomer, axis not shown) [Example 71.1] | 4.29 nM
Cc1cc(F)c(O)c(C)c1-n1c(N)c(C(N)=O)c2c3cnccc3c(C)cc21 [Example 207] | 4.08 nM
Cc1cc(F)c(O)c(C)c1-n1c(N)c(C(N)=O)c2cc(CC(C)C)c(C)nc21 (atropisomer, axis not shown) [Example 166.2] | 3.78 nM
Cc1cc2c(C(N)=O)c(N)n(-c3c(C)c(F)cc(O)c3F)c2nc1C [Example 107] | 14.1 nM
Cc1cc2c(C(N)=O)c(N)n(-c3c(C)c(O)cc(F)c3C)c2nc1-c1ccnn1C [Example 124] | 10.4 nM
C=Cc1ncc2c(C(N)=O)c(N)n(-c3c(C)ccc(O)c3C)c2n1 [Example 6, 6-Amino-7-(3-hydroxy-2,6-dimethylphenyl)-2-vinyl-7H-pyrrolo[2,3-d]pyrimidine-5-carboxamide] | 10.1 nM
Cc1ccc(O)c(C)c1-n1c(N)c(C(N)=O)c2cnc(C#CC(C)(C)F)nc21 [Example 27] | 7.15 nM
Cc1cc(F)c(O)c(C)c1-n1c(N)c(C(N)=O)c2cc(N3CCCC3)c(C)nc21 (racemic) [Example 162] | 14.5 nM
Cc1ccc(O)c(C)c1-n1c(N)c(C(N)=O)c2cc(NC(=O)Nc3ccccc3)c(C)nc21 [Example 91] | 41.7 nM
COc1ccc(CNc2ncc3c(C(N)=O)c(N)n(-c4c(C)ccc(O)c4C)c3n2)cc1 [Example 15, 6-Amino-7-(3-hydroxy-2,6-dimethylphenyl)-2-((4-methoxybenzyl)amino)-7H-pyrrolo[2,3-d]pyrimidine-5-carboxamide] | 168 nM
[2H]C([2H])([2H])c1nc2c(cc1C(F)(F)F)c(C(N)=O)c(N)n2-c1c(C)cc(F)c(O)c1C (atropisomer, axis not shown) [Example 194.1] | 5.3 nM
Cc1cc(F)c(O)c(C)c1-n1c(N)c(C(N)=O)c2cc(Cl)c(C)nc21 (racemic) [Example 60] | 4.31 nM
